Laboratory results from US9693556B2, “Herbicidal pyridazinone derivatives” (SYNGENTA LIMITED, priority 2011, dated 2017).

What was measured:
Type in all cases: in vivo
[1] = system: Amaranthus retoflexus (AMARE); test: Pre-emergence herbicidal glasshouse test on Amaranthus retoflexus; details: pre-emergence; 1000 g/h; evaluated after 13 days
Procedure, shortened: (§1)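 Scored on a five-point scale (1 = 0-19% to 5 = 80-100% damage) 13 days after treatment. Application rate 1000 g/h in acetone/water (50:50) containing 0.5% Tween 20, sprayed one day post-sowing for pre-emergence or eight days for post-emergence; glasshouse at 24/16° C, 14 h light, 65% humidity.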

[2] = system: Echinochloa crus-galli (ECHCG); test: Pre-emergence herbicidal glasshouse test on Echinochloa crus-galli; details: pre-emergence; 1000 g/h; evaluated after 13 days
Procedure, shortened: as §1

[3] = system: Ipomoea hederacea (IPOHE); test: Pre-emergence herbicidal glasshouse test on Ipomoea hederacea; details: pre-emergence; 1000 g/h; evaluated after 13 days
Procedure, shortened: as §1

[4] = system: Alopecurus myosuroides (ALOMY); test: Pre-emergence herbicidal glasshouse test on Alopecurus myosuroides; details: pre-emergence; 1000 g/h; evaluated after 13 days
Procedure, shortened: as §1

[5] = system: Alopecurus myosuroides (ALOMY); test: Post-emergence herbicidal glasshouse test on Alopecurus myosuroides; details: post-emergence; 1000 g/h; evaluated after 13 days
Procedure, shortened: as §1

Solanum nigrum (SOLNI) [6] = test: Post-emergence herbicidal glasshouse test on Solanum nigrum; details: post-emergence; 1000 g/h; evaluated after 13 days
Procedure, shortened: as §1

Setaria faberi (SETFA) [7] = test: Pre-emergence herbicidal glasshouse test on Setaria faberi; details: pre-emergence; 1000 g/h; evaluated after 13 days
Procedure, shortened: as §1

Solanum nigrum (SOLNI) [8] = test: Pre-emergence herbicidal glasshouse test on Solanum nigrum; details: pre-emergence; 1000 g/h; evaluated after 13 days
Procedure, shortened: as §1

[9] = system: Amaranthus retoflexus (AMARE); test: Post-emergence herbicidal glasshouse test on Amaranthus retoflexus; details: post-emergence; 1000 g/h; evaluated after 13 days
Procedure, shortened: as §1

[10] = system: Ipomoea hederacea (IPOHE); test: Post-emergence herbicidal glasshouse test on Ipomoea hederacea; details: post-emergence; 1000 g/h; evaluated after 13 days
Procedure, shortened: as §1

Setaria faberi (SETFA) [11] = test: Post-emergence herbicidal glasshouse test on Setaria faberi; details: post-emergence; 1000 g/h; evaluated after 13 days
Procedure, shortened: as §1

[12] = system: Echinochloa crus-galli (ECHCG); test: Post-emergence herbicidal glasshouse test on Echinochloa crus-galli; details: post-emergence; 1000 g/h; evaluated after 13 days
Procedure, shortened: as §1

| SMILES | PRE Application AMARE herbicidal damage (five point scale) [1] | PRE Application ECHCG herbicidal damage (five point scale) [2] | PRE Application IPOHE herbicidal damage (five point scale) [3] | PRE Application ALOMY herbicidal damage (five point scale) [4] | POST Application ALOMY herbicidal damage (five point scale) [5] | POST Application SOLNI herbicidal damage (five point scale) (Solanum nigrum (SOLNI) [6]) | PRE Application SETFA herbicidal damage (five point scale) (Setaria faberi (SETFA) [7]) | PRE Application SOLNI herbicidal damage (five point scale) (Solanum nigrum (SOLNI) [8]) | POST Application AMARE herbicidal damage (five point scale) [9] | POST Application IPOHE herbicidal damage (five point scale) [10] | POST Application SETFA herbicidal damage (five point scale) (Setaria faberi (SETFA) [11]) | POST Application ECHCG herbicidal damage (five point scale) [12] |
| --- | --- | --- | --- | --- | --- | --- | --- | --- | --- | --- | --- | --- |
| Cn1ncc(-c2ccccc2S(=O)(=O)C(F)(F)F)c(O)c1=O [Compound 1.056] | 5 (5=80-100% damage) | 5 (5=80-100% damage) | 1 (1=0-19% damage) | 5 (5=80-100% damage) | 5 (5=80-100% damage) | 5 (5=80-100% damage) | 1 (1=0-19% damage) | 4 (4=60-79% damage) | 5 (5=80-100% damage) | 5 (5=80-100% damage) | 5 (5=80-100% damage) | 5 (5=80-100% damage) |
| Cn1ncc(-c2ccc(F)cc2[S+](C)[O-])c(O)c1=O (stereo not drawn) [Compound 1.057] | 5 (5=80-100% damage) | 5 (5=80-100% damage) | 2 (2=20-39% damage) | 5 (5=80-100% damage) | 5 (5=80-100% damage) | 5 (5=80-100% damage) | 5 (5=80-100% damage) | 5 (5=80-100% damage) | 5 (5=80-100% damage) | 5 (5=80-100% damage) | 5 (5=80-100% damage) | 5 (5=80-100% damage) |
| Cn1ncc(-c2ccc(F)cc2S(C)(=O)=O)c(O)c1=O [Compound 1.058] | 5 (5=80-100% damage) | 5 (5=80-100% damage) | 5 (5=80-100% damage) | 5 (5=80-100% damage) | 5 (5=80-100% damage) | 5 (5=80-100% damage) | 5 (5=80-100% damage) | 5 (5=80-100% damage) | 5 (5=80-100% damage) | 5 (5=80-100% damage) | 5 (5=80-100% damage) | 5 (5=80-100% damage) |
| Cn1ncc(-c2ccc(Cl)cc2[S+](C)[O-])c(O)c1=O (stereo not drawn) [Compound 1.059] | 5 (5=80-100% damage) | 5 (5=80-100% damage) | 5 (5=80-100% damage) | 5 (5=80-100% damage) | 5 (5=80-100% damage) | 5 (5=80-100% damage) | 5 (5=80-100% damage) | 5 (5=80-100% damage) | 5 (5=80-100% damage) | 5 (5=80-100% damage) | 5 (5=80-100% damage) | 5 (5=80-100% damage) |
| Cn1ncc(-c2ccc(Cl)cc2S(C)(=O)=O)c(O)c1=O [Compound 1.061] | 5 (5=80-100% damage) | 5 (5=80-100% damage) | 4 (4=60-79% damage) | 5 (5=80-100% damage) | 5 (5=80-100% damage) | 5 (5=80-100% damage) | 5 (5=80-100% damage) | 5 (5=80-100% damage) | 5 (5=80-100% damage) | 5 (5=80-100% damage) | 5 (5=80-100% damage) | 5 (5=80-100% damage) |
